Experiments:
Format in all cases: cell-based
[1] = target: T1, ERα (Homo sapiens, UniProt P03372); assay: ERα luciferase reporter gene experiment; conditions: HEK293 transfected with pBIND-ERα
T1 sequence (P03372 311-547 limits assumed): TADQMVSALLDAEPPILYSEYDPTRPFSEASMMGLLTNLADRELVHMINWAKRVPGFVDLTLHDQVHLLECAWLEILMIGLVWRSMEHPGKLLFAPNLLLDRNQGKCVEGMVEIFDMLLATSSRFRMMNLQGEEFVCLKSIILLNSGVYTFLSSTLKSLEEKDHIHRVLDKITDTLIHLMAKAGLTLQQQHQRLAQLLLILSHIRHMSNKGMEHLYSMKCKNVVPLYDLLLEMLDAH
Method: HEK293 cells were cultured in DMEM+10% FBS medium in a carbon dioxide incubator humidified at 37° C. at 5% carbon dioxide.
• 1) HEK293 cells were trypsinized, and the HEK293 cell resuspension was adjusted to 200,000 cell/mL in medium (96 well plate: 100 μL/well). • 2) Transfection reagent mixtures were prepared according to the table below, mixed well and left at room temperature for 20 minutes.
• 3) The prepared transfection mixtures were added to 10 mL of the cell density-adjusted resuspension, mixed well by turning the mixtures upside down, and seeded into a 96-well plate at a volume of 100 μL/well. • 4) The 96-well plate was incubated in a humidified incubator at 37° C. and 5% carbon dioxide for 24 hours.
The test plate was detected using the Dual-Glo Luciferase Assay System kit from Promega, and the fluorescence signal of Firefly Luciferase and the fluorescence signal of Renilla Luciferase were read using Enspire, respectively.
Y is the agonism and X is the concentration of the compound.

[2] = tested on: human PBMC cells; assay: IFN-α secretion from PBMC under R848 stimulation (compounds); conditions: R848 5 μM, 24 hours, mean ± standard deviation
Method: (§1) The compounds of the present application were tested for their inhibitory effect on the production of peripheral blood monocytes. The peripheral blood monocytes were treated in vitro with the ligand-drug conjugate at different concentrations, and IFNα and TNFα generated by the peripheral blood monocytes were quantitatively detected after a certain time. The compounds of the present invention were evaluated for in-vitro activity.
(§2) The cryopreserved human PBMC cells were resuspended in a complete medium and counted, and the cell suspension was adjusted to 2.5×10*6 cells/mL with the culture medium. After the suspension was centrifuged to collect the cells the next day, the cells were resuspended using fresh culture medium. Test compounds were diluted to 4-fold final concentration in cell culture medium, 50 μL of the compounds were added into a 96-well cell plate, and 100 μL of diluted cells ([…]) were added into each well of the 96-well plate containing the compounds, followed by addition of 50 μL R848 to a final concentration of 5 μM. The cell plate was incubated at 37° C. with 5% CO2 for 24 hours. The supernatant was collected, and the TNF-α and IFN-α concentration levels in the supernatant were detected using an ELISA kit.
50 μL of biotinylated antibody working solution was added into each well. After mixing well, the plate was covered with the plate-sealing membrane and incubated at room temperature for 3 hours. […] The procedure was repeated for 3 times. 100 μL of Streptavidin-HRP working solution was added into each well. The plate was covered with the plate-sealing membrane and incubated at room temperature for 20 minutes. The plate was washed for 3 times, 100 μL of TMB liquid was added into each well, and the plate was incubated for 25 minutes at room temperature (18-25° C.) in the dark. The reaction was stopped by adding 100 μL stop solution rapidly to each well. The reading at a wavelength of 450 nm was detected by an M2e instrument within 10 minutes after termination.
(§3) The contents of TNF-α and IFN-α were calculated from the OD450 values.

[3] = tested on: human PBMC cells; assay: TNF-α secretion from PBMC under R848 stimulation (compounds); conditions: R848 5 μM, 24 hours, mean ± standard deviation
Method: as §1, §2
TNF-α concentration assay was performed using Dakewe TNF-α ELISA kit (Cat #1117202), 100 μL of the serially-diluted cytokine standard was added into each well, 100 μL of the above supernatant diluted 10-fold was added into each well, and 100 μL of 1× dilution buffer R was added into each blank well. 50 μL of biotinylated antibody working solution was added into each well. After mixing well, the plate was covered with the plate-sealing membrane and incubated at room temperature for 3 hours. The plate was washed for 3 times: the liquid in each well was discarded, and 300 μL of 1× washing buffer working solution was added into each well; after 1 minute of residence, the liquid in the wells was discarded. The procedure was repeated for 3 times. 100 μL of Streptavidin-HRP working solution was added into each well. The plate was covered with the plate-sealing membrane and incubated at room temperature for 20 minutes. The plate was washed for 3 times, 100 μL of TMB liquid was added into each well, and the plate was incubated for 25 minutes at room temperature (18-25° C.) in the dark. The reaction was stopped by adding 100 μL stop solution rapidly to each well. The reading at a wavelength of 450 nm was detected by an M2e instrument within 10 minutes after termination.
as §3

C[C@]12C=CC(=O)C=C1CC[C@@H]1[C@@H]2[C@@H](O)C[C@@]2(C)[C@H]1C[C@H]1O[C@@H](c3ccc(Cc4ccc(CO)cc4)cc3)O[C@]12C(=O)CO [Compound 4]
EC50 [1]: > 1 µM
IFN-α secretion (pg/mL) from PBMC under R848 stimulation ([2]; compound 4 nM): 13.2 ± 13.2 pg/mL
IFN-α secretion (pg/mL) from PBMC under R848 stimulation ([2]; compound 20 nM): 27.9 ± 27.9 pg/mL
IFN-α secretion (pg/mL) from PBMC under R848 stimulation ([2]; compound 100 nM): 0 ± 0 pg/mL
TNF-α secretion (pg/mL) from PBMC under R848 stimulation ([3]; compound 4 nM): 443.6 pg/mL
TNF-α secretion (pg/mL) from PBMC under R848 stimulation ([3]; compound 20 nM): 320 pg/mL
TNF-α secretion (pg/mL) from PBMC under R848 stimulation ([3]; compound 100 nM): 356.1 pg/mL

Source: patent publication US20250002527A1, “STEROID COMPOUND AND CONJUGATE THEREOF” (DUALITY BIOLOGICS (SUZHOU) CO., LTD., priority 2021, published 2025)
